Results on ten molecules are retold here after patent US6538006B1, “Retroviral protease inhibitors” (Pharmacia Corporation, priority 1998, dated 2003).

In series [1] the target is T1, HIV protease (Human immunodeficiency virus type 1 group M subtype B, UniProt P04585).
T1 construct: final enzyme concentration of 12.3 nanomolar, based on a molecular weight of 10,780
Briefly: HIV protease enzyme assay (fluorogenic substrate). It is filed as biochemical. Particulars: for IC50: HIV protease 12.3 nanomolar, substrate 80 μM, pH 6.4, read-out: Enzyme Inhibition (IC50); for inhibition at 10 µM: read-out: inhibition of the HIV enzyme. Here is the method: The calculated IC50 (inhibiting concentration 50%, i.e., the concentrations at which the inhibitor compound reduces enzyme activity by 50%) values are shown in Table 1. The enzyme method is described below. The substrate is 2-aminobenzoyl-Ile-Nle-Phe(p-NO2)-Gln-ArgNH2. The positive control is MVT-101 (Miller, M. et al, Science, 246, 1149 (1989)]. The assay conditions are as follows:
Assay buffer: 20 mM sodium phosphate, pH 6.4
The above described substrate is dissolved in DMSO, then diluted 10 fold in assay buffer. Final substrate concentration in the assay is 80 μM.
HIV protease is diluted in the assay buffer to a final enzyme concentration of 12.3 nanomolar, based on a molecular weight of 10,780.
The final concentration of DMSO is 14% and the final concentration of glycerol is 18%. The test compound is dissolved in DMSO and diluted in DMSO to 10× the test concentration; 10 μL of the enzyme preparation is added, the materials mixed and then the mixture is incubated at ambient temperature for 15 minutes. The enzyme reaction is initiated by the addition of 40 μL of substrate. The increase in fluorescence is monitored at 4 time points (0, 8, 16 and 24 minutes) at ambient temperature. Each assay is carried out in duplicate wells.

Series [2] deals with HIV-1. As to the kind of experiment: CEM cell assay, HIV inhibition in acutely infected cells (MTT). It counts as cell-based. Particulars: Human immunodeficiency virus 1, CCRF-CEM, 168 h; CEM cells infected with HIV-1, 7 days, reduces cytopathicity by 50%; read-out: Antiviral Activity in Cell Culture (EC50). Here is the method:
(§1) The effectiveness of the compounds tested in Part A was also determined in a CEM cell assay. The HIV inhibition assay method of acutely infected cells is an automated tetrazolium based calorimetric assay essentially that reported by Pauwles et al, J. Virol. Methods 20, 309-321 (1988). Assays were performed in 96-well tissue culture plates. CEM cells, a CD4^+ cell line, were grown in RPMI-1640 medium (Gibco) supplemented with a 10% fetal calf serum and were then treated with polybrene ([…]). An 80 μL volume of medium containing 1×10^4 cells was dispensed into each well of the tissue culture plate. To each well was added a 100 μL volume of test compound dissolved in tissue culture medium (or medium without test compound as a control) to achieve the desired final concentration and the cells were incubated at 37° C. for 1 hour. A frozen culture of HIV-1 was diluted in culture medium to a concentration of 5×10^4 TCID50 per mL (TCID50=the dose of virus that infects 50% of cells in tissue culture), and a 20 μL volume of the virus sample (containing 1000 TCID50 of virus) was added to wells containing test compound and to wells containing only medium (infected control cells). Several wells received culture medium without virus (uninfected control cells). Likewise, the intrinsic toxicity of the test compound was determined by adding medium without virus to several wells containing test compound. In summary, the tissue culture plates contained the following experiments:
(§2) In experiments 2 and 4, the final concentrations of test compounds were 1, 10, 100 and 500 μg/mL. Either azidothymidine (AZT) or dideoxyinosine (ddI) was included as a positive drug control. […] DMSO was added to all control wells at an appropriate concentration.
(§3) Following the addition of virus, cells were incubated at 37° C. in a humidified, 5% CO2 atmosphere for 7 days. Test compounds could be added on days 0, 2 and 5 if desired. On day 7, post-infection, the cells in each well were resuspended and a 100 μL sample of each cell suspension was removed for assay. A 20 μL volume of a 5 mg/mL solution of 3-(4,5-dimethylthiazol-2-yl)-2,5-diphenyltetrazolium bromide (MTT) was added to each 100 μL cell suspension, and the cells were incubated for 4 hours at […] in a 5% CO2 environment. […] To each sample was added 100 μL of 10% sodium dodecylsulfate in 0.01 N HCl to lyse the cells, and samples were incubated overnight. The absorbance at 590 nm was determined for each sample using a Molecular Devices microplate reader. Absorbance values for each set of wells is compared to assess viral control infection, uninfected control cell response as well as test compound by cytotoxicity and antiviral efficacy.
(§4) The calculated EC50 (effective concentration 50%, i.e., the concentration at which the inhibitor compound reduces cytopathicity by 50%) and TD50 (toxic dose 50%, i.e., the concentration at which the inhibitor compound reduces cellular viability by 50%) values for these compounds are also shown in Table 1.

In series [3] the test system is CEM cells. Briefly: CEM cell assay, intrinsic toxicity of test compound (MTT, no virus). The conditions noted are these: CEM cells without virus, reduces cellular viability by 50%. It counts as cell-based. The method, then: as §1, §2, §3, §4

As for `C[C@H](CS(C)(=O)=O)C(=O)N[C@@H](Cc1ccccc1)[C@H](O)CN1C[C@H]2CCCC[C@H]2C[C@H]1C(=O)NC(C)(C)C`, the IC50 in series [1] came out at 7 nM. Also, in series [2], the EC50 came to 42 nM. Also, in series [3], the “Cell Toxicity (TD50)” value was 58,000 nM.
The matching figures for `COc1ccc(COC(=O)NC[C@@H](C)C(=O)N[C@@H](Cc2ccccc2)[C@H](O)CN2C[C@H]3CCCC[C@H]3C[C@H]2C(=O)NC(C)(C)C)cc1`: 2 nM, 52 nM and 2,000 nM.
Taken in the same sequence, the figures for `CC(C)(C)NC(=O)[C@@H]1C[C@@H]2CCCC[C@@H]2CN1C[C@@H](O)[C@H](Cc1ccccc1)NC(=O)C[C@H](NC(=O)c1ccc2ccccc2n1)C(N)=O` were 9 nM, 37 nM and 5,000 nM.
On to `C[C@@H](C(=O)N[C@@H](Cc1ccccc1)[C@H](O)CN1C[C@H]2CCCC[C@H]2C[C@H]1C(=O)NC(C)(C)C)C(C)(C)CN`, for which the IC50 in series [1] was found to be 9 nM. In series [2], the EC50 is 98 nM. Moreover, the “Cell Toxicity (TD50)” value in series [3] is on record as 59,000 nM.
The matching figures for `C[C@@H](C(=O)N[C@@H](Cc1ccccc1)[C@H](O)CN1C[C@H]2CCCC[C@H]2C[C@H]1C(=O)NC(C)(C)C)C(C)(C)C(=O)O`: 23 nM, 184 nM and 50,000 nM.
As for `COc1ccc(COC(=O)NC[C@@H](C)C(=O)N[C@@H](Cc2ccccc2)[C@H](O)CN2C[C@H]3CCCC[C@H]3C[C@H]2C(=O)NC(C)(C)C)cc1` (relative stereo) [Example 4, Carbamic Acid, [3-[[3-[3-[[(1,1-Dimethylethyl)-amino]carbonyl]octahydro-2(1H)-isoquinolinyl]-2-hydroxy-1-(phenylmethyl)propyl]amino]-2-methyl-3-oxopropyl]-, (4-Methoxyphenyl)methyl Ester, [3S-[2(1R*,(S*),2S*),3α,4aβ,8aβ]]-], in series [1], the inhibition at 10 µM was 3 to 100%.
Take `C[C@H](CS(C)(=O)=O)C(=O)N[C@@H](Cc1ccccc1)[C@H](O)CN1C[C@H]2CCCC[C@H]2C[C@H]1C(=O)NC(C)(C)C` (relative stereo) [Example 6, 3-Isoquinolinecarboxamide, N-(1,1-Dimethylethyl)decahydro-2-[2-hydroxy-3-[[2-methyl-3-(methylsulfonyl)-1-oxopropyl]amino]-4-phenylbutyl]-, [3S-[2(2S*,3S*(R*)],3α,4aβ,8aβ]]-]: the inhibition at 10 µM in series [1] is 3 to 100%.
As to `CC(C)(C)NC(=O)[C@@H]1C[C@@H]2CCCC[C@@H]2CN1C[C@@H](O)[C@H](Cc1ccccc1)NC(=O)C[C@H](NC(=O)c1ccc2ccccc2n1)C(N)=O` (relative stereo) [Example 10, Butanediamide, N^4-[3-[3-[[((1,1-Dimethylethyl)-amino]carbonyl]octahydro-2(1H)-isoquinolinyl]-2-hydroxy-1-(phenylmethyl)propyl]-2-[(2-quinolinylcarbonyl)amino]-, [3S[2[1R*(R*),2S*],3α,4aβ,8aβ]]-], the inhibition at 10 µM in series [1] lay in the range of 3 to 100%.
Still for that read-out and setting: to `C[C@@H](C(=O)N[C@@H](Cc1ccccc1)[C@H](O)CN1C[C@H]2CCCC[C@H]2C[C@H]1C(=O)NC(C)(C)C)C(C)(C)C(N)=O` (relative stereo) [Example 12, Butanamide, 4-[[3-[3-[[(1,1-Dimethylethyl)-amino]carbonyl]octahydro-2(1H)-isoquinolinyl]-2-hydroxy-1-(phenylmethyl)propyl]amino]-2,2,3-trimethyl-4-oxo-, [3S-[2[1R*(S*),2S*],3α,4aβ,8aβ]]-] belongs 3 to 100%; to `C[C@@H](C(=O)N[C@@H](Cc1ccccc1)[C@H](O)CN1C[C@H]2CCCC[C@H]2C[C@H]1C(=O)NC(C)(C)C)C(C)(C)C(=O)O` (relative stereo) [Example 12C, butanoic acid, 4-[[3-[3-[[(1,1-dimethylethyl)amino]carbonyl]octahydro-2(1H)-isoquinolinyl]-2-hydroxy-1-(phenylmethyl)propyl]amino]-2,2,3-trimethyl-4-oxo-, [3S-[2[1R*(S*),2S*],3α,4aβ,8aβ]]-], 3 to 100%.

A word on the IC50: it is the concentration needed to halve the response being measured. A word on the EC50: it is the concentration giving half of the maximal effect. A word on the inhibition: it is the relative decrease from the control value, in per cent.
